Structures can show the parent of a compound that is named as a salt. Where two headings read alike, the source gives them in different places.
How the values were obtained:
[1] = tested on: gastric cancer cell line AGS; experiment: MTT proliferation, gastric cancer cell line AGS; type: cell-based; settings: MTT, 72 hours, AGS; read-out: IC50 (μM) in gastric cancer cells, AGS
Procedure: (§1) The method for determining inhibitory activities of the compounds on the proliferation of tumor cells by an MTT method is as follows: a bottle of cells in a good state in an exponential growth phase is added with 0.25% trypsin digestive juice, the digestion makes adherent cells fall off, with 2 to 4×10^4 cells/mL, and a cell suspension is prepared. The cell suspension is inoculated on a 96-well plate, with 90 μL/well, and cultured in a constant-temperature CO2 incubator for 24 hours. The prepared compounds are added for testing, with 10 μL/well, and cultured for 72 hours. An MTT reagent is added into a 96-well plate, with 10 μL/well, and reacts in an incubator for 4 hours to absorb a supernatant, and then dimethyl sulfoxide is added, with 100 μL/well. After a crystal is dissolved, an absorbance of each well at a wavelength of 570 nm is measured by an enzyme-linked immunosorbent assay instrument, and a cell inhibition rate is calculated. An S curve is made with a compound concentration and a corresponding inhibition rate. Therefore, IC50 of a corresponding compound is obtained.
(§2) Anti-tumor dose-effect relationship curves of the cordycepin and 40 compounds prepared in gastric cancer cell lines AGS and BGC-823 were analyzed by an MTT experimental method.

[2] = tested on: small cell lung cancer cell line H69; experiment: MTT proliferation, small cell lung cancer cell line H69; type: cell-based; settings: MTT, 72 hours, H69; read-out: IC50 (μM) of compounds in small cell lung cancer cells, H69
Procedure: as §1
(§3) Anti-tumor dose-effect relationship curves of cordycepin and compounds 1, 2, 4, 5, 7, 8, 10, 12, 16, 18, 21, 23, 24, 35 and 38 in small cell lung cancer cell lines H1048, H446 and H69 were analyzed by an MTT experimental method.

[3] = tested on: gastric cancer cell line BGC-823; experiment: MTT proliferation, gastric cancer cell line BGC-823; type: cell-based; settings: MTT, 72 hours, BGC-823, read-out: IC50 (μM) in gastric cancer cells, BGC-823
Procedure: as §1, §2

[4] = tested on: small cell lung cancer cell line H446; experiment: MTT proliferation, small cell lung cancer cell line H446; type: cell-based; settings: MTT; for IC50: 72 hours, H446, read-out: IC50 (μM) of compounds in small cell lung cancer cells, H446
Procedure: as §1, §3

[5] = tested on: small cell lung cancer cell line H1048; experiment: MTT proliferation, small cell lung cancer cell line H1048; type: cell-based; settings: MTT, 72 hours, H1048, read-out: IC50 (μM) of compounds in small cell lung cancer cells, H1048
Procedure: as §1, §3

[6] = tested on: wild-type AB-line zebrafish; settings: 3 dpf to 5 dpf, 35° C.; survival rate>90% and teratogenicity<20%
Procedure: The zebrafish model is a wild-type AB-line zebrafish from College of Biotechnology and Pharmaceutical Engineering, Nanjing Tech University, and is carried out by a natural mating reproduction method, with 30 zebrafish of 2 dpf in each experimental group. The zebrafish is fed in fish culture water at 28° C. (water quality:200 mg of instant sea salt and CaCO3 are added into 1 L of reverse osmosis water with a conductivity of 480 uS/cm to 510 uS/cm, a pH value of 6.9 to 7.2, and a hardness of 53.7 mg/L to 71.6 mg/L), and the feeding management meets the requirements of international AAALAC certification.
240 3 dpf wild-type AB-line zebrafish were randomly selected in an 8-well plate, with 30 zebrafish in each well, and 3 mL of fish culture water in each well, the cordycepin was diluted according to a maximum lethal dose, dissolved in DMSO, and added into each well according to a concentration gradient (the maximum lethal dose was diluted by 100 times, in which 8 concentration gradient values were taken for the experiment), and meanwhile, a normal control group, a solvent control group G (5% glucose) and a solvent control group D (DMSO) were set. During the experiment, the zebrafish in each group were cultured at 35° C., after the zebrafish were treated to be 5 dpf with a sample to be tested, lethal and developmental malformation conditions of the zebrafish in different doses were investigated respectively, and a maximum tolerance dose (MTD) of the sample to be tested to normal zebrafish was determined under a concentration when survival rate>90% and teratogenicity<20%.

Molecule | IC50 [1] | IC50 [2] | IC50 [3] | IC50 ([3]; Homo sapiens) | also measured
Nc1ncnc2c1ncn2[C@@H]1O[C@H](COCCO)CC1O (stereo partly shown) [Compound 1] | 81.7 µM | 20.6 µM | 64.4 µM | – | IC50 [4]: 23.8 µM; IC50 [5]: 27.4 µM
Nc1ncnc2c1ncn2[C@@H]1O[C@H](COCP(=O)(O)O)CC1O (stereo partly shown) [Compound 3] | 86.7 µM | – | – | 61.4 µM | –
CC(C)COP(=O)(OCC(C)C)OC[C@@H]1CC(O)[C@H](n2cnc3c(N)ncnc32)O1 (stereo partly shown) [Compound 4, (5-(6-amino-9H-purine-9-yl)-4-hydroxytetrahydrofuran-2-yl)diisobutyl methylphosphate] | 64.3 µM | 43.2 µM | – | 86.2 µM | IC50 ([4]; Homo sapiens, NCI-H446, 72 h): 54.3 µM; IC50 ([5]; Homo sapiens, NCI-H1048, 72 h): 42.1 µM
COC(=O)C(NP(=O)(OC[C@@H]1CC(O)[C@H](n2cnc3c(N)ncnc32)O1)Oc1ccccc1)C(C)C (stereo partly shown) [Compound 6] | 66.8 µM | – | – | 73.2 µM | Maximum tolerance dose (MTD) in zebrafish model [6]: 384 µM
CC(C)[C@H](N)C(=O)OCC(CO)OCC1CC(O)C(n2cnc3c(N)ncnc32)O1 (stereo partly shown) [Compound 8, 2-(-5-(6-amino-9H-purin-9-yl)-4-hydroxytetrahydrofuran-2-yl)methoxy)-3-hydroxypropyl valine salt] | 27.8 µM | 14.8 µM | 18.8 µM | – | IC50 [4]: 10.5 µM; IC50 [5]: 14.5 µM
NC1=CS(=O)(=O)OC12C[C@@H](COP(=O)(O)O)O[C@H]2n1cnc2c(N)ncnc21 (stereo partly shown) [Compound 9, (4-amino-6-(6-amino-9H-purin-9-yl)-2,2-dioxide-1,7-dioxane-2-thiaspiro[4.4]non-3-ene-8-yl)dihydromethyl phosphate] | 0.46 µM | – | – | 1.24 µM | Maximum tolerance dose (MTD) in zebrafish model [6]: 14 µM
O=C(Nc1ncnc2c1ncn2[C@@H]1O[C@H](CO)CC1O)C1CCCC1 (stereo partly shown) [Compound 11] | 13 µM | – | – | 10.3 µM | Maximum tolerance dose (MTD) in zebrafish model [6]: 75 µM
O=C(Nc1ncnc2c1ncn2[C@@H]1O[C@H](CO)CC1O)c1ccncc1 (stereo partly shown) [Compound 12] | 1.23 µM | 19.5 µM | – | 1.34 µM | IC50 ([4]; Homo sapiens, NCI-H446, 72 h): 18.1 µM; IC50 ([5]; Homo sapiens, NCI-H1048, 72 h): 22.2 µM
Nc1nc(F)nc2c1ncn2[C@@H]1O[C@H](COP(=O)(O)O)CC1O (stereo partly shown) [Compound 13, (5-(6-amino-2-fluoro-9H-purine-9-yl)-4-hydroxytetrahydrofuran-2-yl)dihydromethyl phosphate] | 32.5 µM | – | – | 36.8 µM | Maximum tolerance dose (MTD) in zebrafish model [6]: 0.05 µM
Nc1nc(S)nc2c1ncn2[C@@H]1O[C@H](COP(=O)(O)O)CC1O (stereo partly shown) [Compound 14, (5-(6-amino-2-mercapto-9H-purine-9-yl)-4-hydroxytetrahydrofuran-2-yl)dihydromethyl phosphate] | 12.9 µM | – | – | 18.6 µM | –
Nc1ncnc2c1ncn2[C@@H]1O[C@H](COP(=O)(O)O)[C@H](F)C1O (stereo partly shown) [Compound 15, (5-(6-amino-9H-purine-9-yl)-3-fluoro-4-hydroxytetrahydrofuran-2-yl)dihydromethyl phosphate] | 18.4 µM | – | – | 20.7 µM | –
CC(C)(C)C(=O)OCOP(=O)(COC[C@@H]1CC(O)[C@H](n2cnc3c(N)nc(F)nc32)O1)OCOC(=O)C(C)(C)C (stereo partly shown) [Compound 17] | 1.32 µM | – | – | 2.39 µM | –
CC(C)(C)C(=O)OCOP(=O)(COC[C@@H]1CC(O)[C@H](n2cnc3c(NC(=O)c4ccncc4)ncnc32)O1)OCOC(=O)C(C)(C)C (stereo partly shown) [Compound 23] | 0.89 µM | 20.2 µM | – | 1.31 µM | IC50 ([4]; Homo sapiens, NCI-H446, 72 h): 16.4 µM; IC50 ([5]; Homo sapiens, NCI-H1048, 72 h): 17.4 µM
CC(C)(C)C(=O)OCOP(=O)(COC[C@H]1O[C@@H](n2cnc3c(N)ncnc32)C(O)[C@H]1N=[N+]=[N-])OCOC(=O)C(C)(C)C (stereo partly shown) [Compound 26, (((((5-(6-amino-9H-purine-9-yl)-3-azide-4-hydroxytetrahydrofuran-2-yl)methoxy)methyl)phosphoryl)bis(oxy))bis(methylene)bis(2,2-dimethylpropionic acid)] | 57.4 µM | – | – | 46.6 µM | –
CC(C)C(N)C(=O)OC1C[C@@H](CO)O[C@H]1n1cnc2c(N)ncnc21 (stereo partly shown) [Compound 29, 2-(6-amino-9H-purin-9-yl)-5-(hydroxymethyl)tetrahydrofuran-3-yl valine salt] | 32.5 µM | – | – | 41.4 µM | –
CC(C)C(N)C(=O)OC1C[C@@H](COP(=O)(O)O)O[C@H]1n1cnc2c(N)ncnc21 (stereo partly shown) [Compound 30, 2-(6-amino-9H-purin-9-yl)-5-(phosphonoxy)methyl)tetrahydrofuran-3-yl valine salt] | 75.4 µM | – | – | 64.2 µM | –
CC(C)C(N)C(=O)OC1C[C@@H](COP(=O)(O)O)O[C@H]1n1cnc2c(NC(=O)c3ccncc3)ncnc21 (stereo partly shown) [Compound 31, 2-(6-(isonicotinamide)-9H-purin-9-yl)-5-(phosphonyl)methyl)tetrahydrofuran-3-yl valine salt] | 41.2 µM | – | – | 33.6 µM | –
CCCCCOC1CC(COCP(=O)(O)O)OC1n1cnc2c(NC(=O)c3ccncc3)ncnc21 (stereo not shown) [Compound 32, (((5-(6-(isonicotinamide)-9H-purine-9-yl)-4-(pentoxy)tetrahydrofuran-2-yl)methoxy)methyl)phosphonic acid] | 23 µM | – | 19.8 µM | – | –
COC(=O)C(C)NP(=O)(Oc1ccccc1)OC1C[C@@H](CO)O[C@H]1n1cnc2c(N)ncnc21 (stereo partly shown) [Compound 33, methyl(((2-(6-amino-9H-purin-9-yl)-5-(hydroxymethyl)tetrahydrofuran-3-yl)oxy)(phenoxy)phosphoryl)alanine salt] | 36.5 µM | – | 29.5 µM | – | –
Nc1nc(/C=C/Br)nc2c1ncn2[C@@H]1O[C@H](COP(=O)(O)O)CC1O (stereo partly shown) [Compound 38, (5-(6-amino-2-((E)-2-bromocarbonyl)-9H-purine-9-yl)-4-hydroxytetrahydrofuran-2-yl)dihydromethyl phosphate] | 134 µM | 1.25 µM | – | 104 µM | IC50 ([4]; Homo sapiens, NCI-H446, 72 h): 0.97 µM; killing effect on the three lines of cells in vitro ([4]; stated in words for all three lines H1048, H446 and H69): strong killing effect; IC50 ([5]; Homo sapiens, NCI-H1048, 72 h): 1.37 µM
Nc1ncnc2c1ncn2C1OC(COC2CC(CO)C(O)C2O)CC1O (stereo not shown) [Compound 40, 3-((5-(6-amino-9H-purin-9-yl)-4-hydroxytetrahydrofuran-2-yl)methoxy)-5-(hydroxymethyl)cyclopentane-1,2-diol] | 164 µM | – | – | 189 µM | –
N-(2-fluoro-3-hydroxy-5-(hydroxymethyl)tetrahydrofuran-2-yl)-9H-purine-6-yl)octadecylamine [Compound 21] | 2.46 µM | 2.95 µM | 4.38 µM | – | IC50 [4]: 4.58 µM; IC50 [5]: 6.38 µM
N-(3-hydroxy-5-(hydroxymethyl)tetrahydrofuran-2-yl)-9H-purine-6-yl)octadecylamine [Compound 10] | 136 µM | 9.48 µM | 82.4 µM | – | IC50 [4]: 12.1 µM; IC50 [5]: 10.4 µM
N-(4-chloro-3-hydroxy-5-(hydroxymethyl)tetrahydrofuran-2-yl)-9H-purine-6-yl)octadecylamine [Compound 22] | 45 µM | – | 53.7 µM | – | –
isopropyl((((3-azide-4-hydroxy-5-(6-(isoniazid)-9H-purin-9-yl)tetrahydrofuran-2-yl)methoxy)methyl)(phenoxy)phosphoryl)alanine ester [Compound 28] | 3.47 µM | – | 5.42 µM | – | –
